Test results taken from patent publication US5043326A, “Inclusion complex of 7-isopropoxy-isoflavon formed with cyclodextrin, the preparation thereof and pharmaceutical compositions containing these compounds as active ingredients” (priority 1985, dated 1991).
Converted amounts (≈) assume the structure as drawn.

What was measured:
[1] = Resorption test in rats: plasma level of unchanged Ipriflavon (HPLC); format: in vivo, CFY male rats; conditions: rat
Experimental: (§1) To the resorption tests CFY male rats weighing 170-200 g were used. After a 16-hour fasting period, Ipriflavon in a dose of 25 mg/kg (group A), Ipriflavon-β-cyclodextrin inclusion complex prepared according to Example 1 (group B) and Ipriflavon-β-cyclodextrin mixture (group C)--both containing the β-cyclodextrin in equimolar ratio to the active ingredient--were administered, thereafter rat-food and water were given "ad libitum" to the animals.
(§2) The materials to be tested were mixed for 5 minutes in 2 ml of 1% methylcellulose solution and administered by the aid of a stomach tube. The plasma samples were collected 10, 30 minutes and 1, 2 and 4 hours after the treatment using mortal haemorrhage after transecting the Vena femoralis of the animals anasthesied with ether. The blood samples were charged into heparinized tubes, centrifuged, nutsch-filtered and stored deep-freezed, in vial until further use.
(§3) In order to collect urinary samples, after treatment the animals were placed into individual metabolism vessel and urine and faeces were separately collected for 24 hours. The urinary samples were stored deep-freezed until further use. The concentration of the unchanged Ipriflavon and its main metabolite (7-hydroxy-isoflavon) in the urinary and the plasma samples was followed by HPLC.
To carry out the HPLC, liquid chromatography of typ RP-18 and LiChrosorb reverse phase column (grain size in case of plasma sample: 10 μm and in case of urinary samples: 5 μm) were used. Flow velocity of eluent: 1.5 ml/min, wave length of UV detector: 254 nm, paper-velocity: 0.2 cm/min.
In case of plasma samples a mixture of 0.05M acetate buffer (pH=3):acetonitrile=60:40 and in case of urinary samples a mixture of acetate buffer:acetonitril=55:45 were used as eluent. The internal standard was ethanolic solution of 2-methyl-7-methoxy-4'-nitro-isoflavon (100 μg/ml) and to the calibration, solutions comprising 100 μg/ml and 10 μg/ml of 7-hydroxy-isoflavon in methanol were used.
To analyse the plasma samples, to 1 ml of plasma 1 ml acetate-buffer (pH=5) and β-glucuronidase (arylsulfonase) enzyme (100 FU) diluted to 10-fold with 10 μl of distilled water were added and incubated at 37° C. for 24 hours. After incubation, 50 μl of 2N NaOH were added and the mixture was extracted with benzene and centrifuged. The organic phase was separated, the aqueous phase was made acidic with […] of 1N HCl, and after adding 50 μl of internal standard solution it was repeatedly extracted with 8 ml benzene. The organic phase was centrifuged,evaporated, the residue was dissolved in 100 μl of eluent and 50 μl of this solution were injected and measured.
Equation of the calibration curve: y=8.2x-0.08; correlation coefficient: 0.9999.
In Table IV the concentration values of unchanged Ipriflavon and in Table V the concentration values of the main metabolite determined in the blood of animals are shown. To group A Ipriflavon per se, to group B the inclusion complex according to the invention and to group C the mixture of Ipriflavon and β-cyclodextrin were administered.

[2] = design: species or system CFY male rats; conditions: rat, in vivo, po
Experimental: as §1
as §2, with “The blood samples were charged into heparinized tubes, centrifuged, nutsch-filtered and stored deep-freezed, in vial until further use.” left out
To analyse the plasma samples, to 1 ml of plasma 1 ml acetate-buffer (pH=5) and β-glucuronidase (arylsulfonase) enzyme (100 FU) diluted to 10-fold with 10 μl of distilled water were added and incubated at 37° C. for 24 hours. […] The organic phase was centrifuged,evaporated, the residue was dissolved in 100 μl of eluent and 50 μl of this solution were injected and measured. […]
In Table IV the concentration values of unchanged Ipriflavon and in Table V the concentration values of the main metabolite determined in the blood of animals are shown. […]

[3] = Resorption test in rats: plasma level of unchanged Ipriflavon (HPLC); design: species or system CFY male rats; conditions: rat, in vivo, po, 25 mg/kg, 1440 min
[4] = cited from earlier work
[5] = design: species or system CFY male rats; conditions: rat, in vivo, po, 25 mg/kg, 1440 min
physchem = format: physicochemical; conditions: for Concentration of dissolved Ipriflavon: 37° C.
Experimental: To carry out the dissolution tests 250 ml of distilled water were charged into a 500 ml flask and heated to 37° C. Thereafter the product in an amount corresponding to 50 mg of active ingredient was added then the suspension thus obtained was stirred at 1000 rpm using a magnetic stirrer. At fixed intervals 2-6 ml of samples were taken and filtered on glass-filter and after diluting, the filtrates were measured photometrically in an 1:1 mixture of water:ethanol.

[6] = Solubility of Ipriflavon in aqueous cyclodextrin solutions (4 days agitation, 25° C., photometric); format: physicochemical
Experimental: One of the evidence of the formation of inclusion complex between Ipriflavon and cyclodextrin is that the cyclodextrin increases the solubility of Ipriflavon in aqueous solutions. In order to determine this property, 10 mg of Ipriflavon, cyclodextrin in different amounts and 5 ml of distilled water were charged into 10 ml test tubes. After closing, the tubes were agitated for 4 days at 25° C. at 325 rpm, thereafter the samples were filtered on a G4 glass-filter and the filtrates were photometrically analysed in 50% aqueous ethanol solution.

[7] = cited from earlier work; remark: listed apart in the source
[8] = cited from earlier work; remark: listed apart in the source
[9] = Urinary excretion in rats, 24 h (HPLC); format: in vivo, CFY male rats; conditions: rat urine
Experimental: as §1, §2
as §3, with “HPLC. […]” for “HPLC.”

[10] = in vivo, po, 25 mg/kg, Plasma-level of unchanged Ipriflavon

CC(C)Oc1ccc2c(=O)c(-c3ccccc3)coc2c1 [Ipriflavon, 7-isopropoxy-isoflavon]
Plasma-level of unchanged Ipriflavon ([1]; in vivo, po, 25 mg/kg, 10.2 min): 0 µg/mL | Plasma-level of unchanged Ipriflavon ([1]; in vivo, po, 25 mg/kg, 30 min): 0 µg/mL | Plasma-level of unchanged Ipriflavon ([1]; in vivo, po, 25 mg/kg, 60 min): 0 µg/mL | Plasma-level of unchanged Ipriflavon ([1]; in vivo, po, 25 mg/kg, 120 min): 0 µg/mL | Plasma-level of unchanged Ipriflavon ([1]; in vivo, po, 25 mg/kg, 2 h): 0.095 µg/mL | Plasma-level of unchanged Ipriflavon ([1]; in vivo, po, 25 mg/kg, 240 min): 0 µg/mL | concentration at 2 h [1, 10]: 78 ng/mL | concentration at 4 h [1, 10]: 41 ng/mL | detection of unchanged Ipriflavon in plasma ([1]; p.o.): can be detected only in few periods (at 2 and 4 hours) | plasma level of main metabolite [2]: 200 to 1000 ng/mL | Plasma-level of unchanged Ipriflavon [3]: 0 µg/mL | solubility in water [4]: 1 to 2 µg/mL | Plasma-level of main metabolite (7-hydoxy-isoflavon) [5]: 0 µg/mL | Concentration of dissolved Ipriflavon (physchem; 1 min, distilled water): 435 ng/mL | Concentration of dissolved Ipriflavon (physchem; 2 min, distilled water): 327 ng/mL | Concentration of dissolved Ipriflavon (physchem; 3 min, distilled water): 401 ng/mL | Concentration of dissolved Ipriflavon (physchem; 5 min, distilled water): 507 ng/mL | Concentration of dissolved Ipriflavon (physchem; 10 min, distilled water): 882 ng/mL | Concentration of dissolved Ipriflavon (physchem; 15 min, distilled water): 1123 ng/mL | Concentration of dissolved Ipriflavon (physchem; 20 min, distilled water): 1197 ng/mL | Concentration of dissolved Ipriflavon (physchem; 30 min, distilled water): 1423 ng/mL | Concentration of dissolved Ipriflavon (physchem; 40 min, distilled water): 1508 ng/mL | Concentration of dissolved Ipriflavon (physchem; 60 min, distilled water): 1621 ng/mL | Concentration of dissolved Ipriflavon (physchem; 90 min, distilled water): 1525 ng/mL | Concentration of dissolved Ipriflavon (physchem; 120 min, distilled water): 1482 ng/mL | solubility (physchem; distilled water, water): ~1.5 µg/mL (≈ 5.35 µM) | time to reach the saturation value (physchem; free active ingredient): 40 to 50 min | solubility at 96 h ([6]; 12% aqueous alpha-cyclodextrin, solubility of Ipriflavon in α-cyclodextrin solution): 20 to 22 µg/mL (≈ 71.3 to 78.5 µM) | increase of solubility in DIMEB ([6]; 15% DIMEB): 1770 -fold | increase of solubility in TRIMEB ([6]; 15% TRIMEB): 300 -fold | solubility at 96 h ([6]; 15% aqueous dimeb, solubility in DIMEB solution): 1700 to 2000 µg/mL (≈ 6060 to 7130 µM) | solubility at 96 h ([6]; 15% aqueous trimeb, solubility in TRIMEB solution): 440 µg/mL (≈ 1570 µM) | solubility at 96 h ([6]; aqueous α-cd 11 mg/ml, Solubility of Ipriflavon): 4.12 µg/mL (≈ 14.7 µM) | solubility at 96 h ([6]; aqueous α-cd 13 mg/ml, Solubility of Ipriflavon): 4.68 µg/mL (≈ 16.7 µM) | solubility at 96 h ([6]; aqueous α-cd 15 mg/ml, Solubility of Ipriflavon): 5.08 µg/mL (≈ 18.1 µM) | solubility at 96 h ([6]; aqueous α-cd 20 mg/ml, Solubility of Ipriflavon): 6.1 µg/mL (≈ 21.8 µM) | solubility at 96 h ([6]; aqueous α-cd 30 mg/ml, Solubility of Ipriflavon): 8.19 µg/mL (≈ 29.2 µM) | solubility at 96 h ([6]; aqueous α-cd 40 mg/ml, Solubility of Ipriflavon): 9.63 µg/mL (≈ 34.4 µM) | solubility at 96 h ([6]; aqueous α-cd 50 mg/ml, Solubility of Ipriflavon): 10.6 µg/mL (≈ 37.8 µM) | solubility at 96 h ([6]; aqueous α-cd 70 mg/ml, Solubility of Ipriflavon): 14.8 µg/mL (≈ 52.7 µM) | solubility at 96 h ([6]; aqueous α-cd 90 mg/ml, Solubility of Ipriflavon): 18.2 µg/mL (≈ 65.1 µM) | solubility at 96 h ([6]; aqueous α-cd 100 mg/ml, Solubility of Ipriflavon): 21.6 µg/mL (≈ 77.2 µM) | solubility at 96 h ([6]; aqueous α-cd 110 mg/ml, Solubility of Ipriflavon): 19 µg/mL (≈ 67.9 µM) | solubility at 96 h ([6]; aqueous α-cd 120 mg/ml, Solubility of Ipriflavon): 23.6 µg/mL (≈ 84.4 µM) | solubility at 96 h ([6]; aqueous β-cd 1 mg/ml, Solubility of Ipriflavon): 2.52 µg/mL (≈ 8.99 µM) | solubility at 96 h ([6]; aqueous β-cd 3 mg/ml, Solubility of Ipriflavon): 7.03 µg/mL (≈ 25.1 µM) | solubility at 96 h ([6]; aqueous β-cd 5 mg/ml, Solubility of Ipriflavon): 11.4 µg/mL (≈ 40.8 µM) | solubility at 96 h ([6]; aqueous β-cd 7 mg/ml, Solubility of Ipriflavon): 15.9 µg/mL (≈ 56.8 µM) | solubility at 96 h ([6]; aqueous β-cd 9 mg/ml, Solubility of Ipriflavon): 19.5 µg/mL (≈ 69.6 µM) | solubility at 96 h ([6]; aqueous β-cd 11 mg/ml, Solubility of Ipriflavon): 15.2 µg/mL (≈ 54.3 µM) | solubility at 96 h ([6]; aqueous β-cd 13 mg/ml, Solubility of Ipriflavon): 15.5 µg/mL (≈ 55.2 µM) | solubility at 96 h ([6]; aqueous β-cd 15 mg/ml, Solubility of Ipriflavon): 15.8 µg/mL (≈ 56.2 µM) | solubility at 96 h ([6]; aqueous β-cd 20 mg/ml, Solubility of Ipriflavon): 13.5 µg/mL (≈ 48 µM) | solubility at 96 h ([6]; aqueous β-cd 30 mg/ml, Solubility of Ipriflavon): 7.59 µg/mL (≈ 27.1 µM) | solubility at 96 h ([6]; aqueous β-cd 40 mg/ml, Solubility of Ipriflavon): 6.2 µg/mL (≈ 22.1 µM) | solubility at 96 h ([6]; aqueous β-cd 50 mg/ml, Solubility of Ipriflavon): 5.44 µg/mL (≈ 19.4 µM) | solubility at 96 h ([6]; aqueous β-cd 70 mg/ml, Solubility of Ipriflavon): 6.08 µg/mL (≈ 21.7 µM) | solubility at 96 h ([6]; aqueous β-cd 90 mg/ml, Solubility of Ipriflavon): 6.93 µg/mL (≈ 24.7 µM) | solubility at 96 h ([6]; aqueous β-cd 100 mg/ml, Solubility of Ipriflavon): 6.64 µg/mL (≈ 23.7 µM) | solubility at 96 h ([6]; aqueous β-cd 110 mg/ml, Solubility of Ipriflavon): 5.98 µg/mL (≈ 21.3 µM) | solubility at 96 h ([6]; aqueous β-cd 120 mg/ml, Solubility of Ipriflavon): 5.66 µg/mL (≈ 20.2 µM) | solubility at 96 h ([6]; aqueous γ-cd 11 mg/ml, Solubility of Ipriflavon): 2.02 µg/mL (≈ 7.21 µM) | solubility at 96 h ([6]; aqueous γ-cd 13 mg/ml, Solubility of Ipriflavon): 2.05 µg/mL (≈ 7.31 µM) | solubility at 96 h ([6]; aqueous γ-cd 15 mg/ml, Solubility of Ipriflavon): 2.16 µg/mL (≈ 7.71 µM) | solubility at 96 h ([6]; aqueous γ-cd 20 mg/ml, Solubility of Ipriflavon): 2.38 µg/mL (≈ 8.49 µM) | solubility at 96 h ([6]; aqueous γ-cd 30 mg/ml, Solubility of Ipriflavon): 2.74 µg/mL (≈ 9.77 µM) | solubility at 96 h ([6]; aqueous γ-cd solution, Solubility of Ipriflavon): 3.26 µg/mL (≈ 11.6 µM) | solubility at 96 h ([6]; beta-cyclodextrin solution, constant solubility value (solubility limit of the solid inclusion complex in excess Ipriflavon)): 6 µg/mL (≈ 21.4 µM) | solubility at 96 h ([6]; beta-cyclodextrin solution, solubility of Ipriflavon in β-cyclodextrin solution): 16 to 20 µg/mL (≈ 57.1 to 71.3 µM) | solubility at 96 h ([6]; distilled water, water, solubility of Ipriflavon in distilled water): 1 to 2 µg/mL (≈ 3.57 to 7.13 µM) | increase of solubility in β-cyclodextrin solution vs distilled water ([6]; β-cyclodextrin, depending on concentration): ≤ 15 -fold | increase of solubility in γ-cyclodextrin solution ([6]; γ-cyclodextrin): 3 -fold | HPLC analysis of the blood ([7]; beagle dogs): metabolites thereof (7-hydroxy-isoflavon as main metabolite) appear in the blood | radioactive material administered discharged with the urine ([7]; dog, in vivo): 12% | resorption of the main metabolite ([8]; dog, in vivo, po): 152 ng·h/mL | Ipriflavon in the blood ([8]; dogs, oral): cannot be detected in the blood

O=c1c(-c2ccccc2)coc2cc(O)ccc12 [7-hydroxy-isoflavon]
quantity of main metabolite of the total quantity of the metabolite [9]: 50-55%
